{
  "source": "patent US9765101B2",
  "about": "“Organo-arsenoxide compounds and use thereof” (NewSouth Innovations Pty Limited, priority 2006, dated 2017)",
  "key": {"[1]": {"system": "K562 cells (chronic myelogenous leukaemia)", "assay": "K562 cell proliferation assay (MTT, 72 h)", "type": "cell-based", "settings": "K562, human chronic myelogenous leukaemia; read-out: IC50 for proliferation arrest", "protocol": "(§1) BAE cells were from Cell Applications, San Diego, Calif. and BxPC-3, HT1080, LLC, PANC-1, MCF-7, HCT116 and K562 cells were from ATCC, Bethesda, Md. NB4 and MDCK2 cells were from Shane Supple (Kanematsu Laboratories, Royal Prince Alfred Hospital, Sydney, Australia) and P. Borst (The Netherlands Cancer Institute, Amsterdam, The Netherlands). BAE, HT1080, Panc-1, MCF-7, HCT116, MDCK2 and LLC cells were cultured in DMEM. NB4, K562 and BxPC-3 cells were cultured in RPMI medium. The cells were supplemented with 10% foetal calf serum (FBS), 2 mM L-glutamine, and 1 U·mL-1 penicillin/streptomycin. Cell culture plasticware was from Techno Plastic Products (Trasadingen, Switzerland). All other cell culture reagents were from Gibco (Gaithersburg, Md.).\n(§2) Adherent cells were allowed to adhere overnight."}, "[2]": {"system": "MDCK2 cells (kidney epithelial)", "assay": "MDCK2 cell proliferation assay (MTT, 72 h)", "type": "cell-based, dog", "protocol": "as §1, §2"}, "[3]": {"system": "PANC-1 cells (pancreatic carcinoma)", "assay": "PANC-1 cell proliferation assay (MTT, 72 h)", "type": "cell-based", "settings": "PANC-1, human pancreatic carcinoma; read-out: IC50 for proliferation arrest", "protocol": "as §1, §2"}, "[4]": {"system": "HT1080 cells (fibrosarcoma)", "assay": "HT1080 cell proliferation assay (MTT, 72 h)", "type": "cell-based", "settings": "HT1080, human fibrosarcoma; read-out: IC50 for proliferation arrest", "protocol": "as §1, §2"}, "MRP1/2": {"system": "MRP1/2", "assay": "Effect of MRP1/2 inhibitors 4H10 and MK-571 on accumulation and anti-proliferative activity in BAE cells", "experimental": "The data points and error bars are the mean±SD of quadruplicate determinations and is representative of two experiments. […] The MRP inhibitors were incubated for 30 min with the cells prior to incubation with (S)-Penicillamine-arsenoxide for 72 h. The data points and error bars are the mean±SD of triplicate determinations. *** is p<0.001, ** is p<0.01\nBAE, NB4, K562, MDCK2, HT1080, LLC, HCT116, Panc-1, MCF-7 and BxPC-3 cells were seeded at a density of 1.5×10^3, 3×10^3, 4×10^3, 5×10^2, 2×10^3, 5×10^2, 5×10^2, 6×10^3, 6×10^3 and 1×10^4 cells per well, respectively, into 96-well plates. Adherent cells were allowed to adhere overnight. They were then cultured for 72 h in medium containing 10% fetal calf serum and (S)-Penicillamine-arsenoxide. Viable cells were determined by incubating cells with the tetrazolium salt MTT (Sigma, St. Louis, Mo.), which is metabolized by viable cells to form insoluble purple formazan crystals. DMSO was added to lyse cells, the contents of the wells were homogenized and the absorbance measured at 550 nm. Cell number in the untreated control was normalized as 100%, and viable cell number for all treatments was expressed as percentage of control. The cytotoxic effects of (S)-Penicillamine-arsenoxide were assayed by flow cytometry with propidium iodide. BAE cells were seeded at a density of 5×10^4 cells per well into 12-well plates, allowed to adhere overnight, then treated for 48 h with GSAO. […] The combined cells were pelleted, resuspended in 0.5 mL serum-free medium containing 1 μg·mL^−1 propidium iodide (Molecular Probes, Eugene, Oreg.) and analysed by flow cytometry.\nBAE cells were seeded at a density of 1.5×10^6 cells in Petri dishes and allowed to adhere overnight. Cells were incubated with 50 μM (S)-Penicillamine-arsenoxide at discrete times for up to 2 h at 37° C. and then washed three times with ice-cold PBS. The washed cells were lysed in 1 mL of 70% w/w nitric acid. […] Samples were diluted 10-fold and analysed for arsenic atoms using an Elan 6100 Inductively Coupled Plasma Spectrometer (Perkin Elmer Sciex Instruments, Shelton, Conn.)."}, "[5]": {"system": "isolated rat liver mitochondria", "assay": "Mitochondrial swelling assay (mitochondrial permeability transition)", "type": "biochemical", "settings": "100 μM", "protocol": "Mitochondria were isolated from the livers of ˜250 g male Wistar rats using differential centrifugation as previously described (Dilda et al., 2005a; Don et al., 2003). The final mitochondrial pellet was resuspended in 3 mM HEPES-KOH, pH 7.0 buffer containing 213 mM mannitol, 71 mM sucrose and 10 mM sodium succinate at a concentration of 30 mg of protein per mL. Mitochondrial permeability transition induction was assessed spectrophotometrically by suspending the liver mitochondria at 0.5 mg of protein per mL at 25° C. in 3 mM HEPES-KOH, pH 7.0 buffer containing 75 mM mannitol, 250 mM sucrose, 10 mM sodium succinate, and 2 μM rotenone. Swelling was measured by monitoring the associated decrease in light scattering at 520 nm using a SpectraMax Plus microplate reader (Molecular Devices, Palo Alto, Calif.)."}, "[6]": {"system": "organic anion transporting polypeptide (OATP)", "assay": "OATP studies with inhibitor DIDS in BAE cells", "type": "cell-based, bovine", "protocol": "750,000 BAE cells were seeded in 6 well plates containing DMEM with 10% fetal calf serum and allowed to adhere overnight. Cells were pretreated or not with 500 μM 4,4′-diisothiocyanostilbene-2,2′-disulfonic acid (DIDS) for 30 min and then incubated with 20 μM (S)-Penicillamine arsenoxide for 2 h at 37° C. and 5% CO2. Cells were then washed twice with ice-cold PBS and lysed with 70% nitric acid. Cellular arsenic levels were determined by ICPMS. 5000 BAE cells were seeded in 96 well plates containing DMEM with 10% fetal calf serum and allowed to adhere overnight. Cells were pretreated or not with 300 μM DIDS for […] and then incubated with 1.5 μM (S)-Penicillamine arsenoxide for 24 h at 37° C. and 5% CO2. Cell viability was determined using MTT."}, "[7]": {"system": "human BxPC-3 pancreatic carcinoma tumours", "assay": "Primary tumor growth assay, BxPC-3 tumours in BalbC nude mice", "type": "in vivo, mouse", "settings": "for tumour doubling time: subcutaneous micro-osmotic pump, 28 day", "protocol": "Female 7 to 9 week old Balb C nude mice were used (UNSW Biological Resource Centre). Mice were held in groups of 3 to 5 at a 12 h day and night cycle and were given animal chow and water ad libidum. A suspension of 2×10^6 BxPC-3 cells in 0.2 mL of PBS was injected subcutaneously in the proximal midline. Tumors were allowed to establish and grow to a size of ˜50 mm^3 after which they were randomized into four groups. Tumor volume was calculated using the relationship length×height×width×0.523. Tumor doubling time (TD) was calculated from the tumor growth rate curve during exponential growth using the formula […], where VF is final tumor volume and VI is initial tumor volume (Wolff et al., 2004). Animals were implanted with 28 day alzet model 1004 micro-osmotic pumps (ALZA Corporation, Palo Alto, Calif.) subcutaneously in the flank. The pumps delivery 0.25, 0.5 or 1 mg/kg/day (S)-Penicillamine arsenoxide in 100 mM glycine. Tumor volume and animal weight was measured every 2 or 3 days.\nBalbC nude mice bearing subcutaneous human BxPC-3 pancreatic carcinoma tumours in the proximal midline were implanted with 28 day micro-osmotic alzet pumps subcutaneously in the flank. The pumps delivered 0.25, 0.5 or 1 mg per kg per day (S)-Penicillamine arsenoxide. […] The tumour doubling times are 9.2, 8.3, 13.9 and 16.2 days for groups treated with vehicle (100 mM glycine) or 0.25, 0.5 and 1 mg/kg/day (S)-Penicillamine arsenoxide, respectively."}, "[8]": {"system": "BxPC-3 cells (pancreatic carcinoma)", "assay": "BxPC-3 cell proliferation assay (MTT, 72 h)", "type": "cell-based", "settings": "BxPC-3, human pancreatic carcinoma; read-out: IC50 for proliferation arrest", "protocol": "as §1, §2"}, "[9]": {"system": "NB4 cells (acute promyelocytic leukaemia)", "assay": "NB4 cell proliferation assay (MTT, 72 h)", "type": "cell-based, human", "protocol": "as §1, §2"}, "[10]": {"system": "HCT1116 cells (colorectal carcinoma)", "assay": "HCT116 cell proliferation assay (MTT, 72 h)", "type": "cell-based", "settings": "HCT1116, human colorectal carcinoma; read-out: IC50 for proliferation arrest", "protocol": "as §1, §2"}, "BAE cells": {"system": "BAE cells", "assay": "BAE cell viability / cytotoxicity (propidium iodide flow cytometry)", "type": "cell-based, bovine", "settings": "read-out: IC50 for loss of viability", "source_text": "as §2"}},
  "note": "“Also recorded” adds a separate entry of the source.",
  "data": [
    {"molecule": "CC(C)(SCC(=O)Nc1ccc([As](O)O)cc1)[C@@H](N)C(=O)O", "note": "[(S)-Penicillamine-arsenoxide, 4-(N—(S-penicillaminylacetyl)amino)phenylarsinous acid]", "values": [
      {"measurement": "IC50", "setting": "[1]", "value": 1.4, "unit": "µM"},
      {"measurement": "sensitivity of BAE cells relative to kidney epithelial cells", "setting": "[2]; BAE vs MDCK2", "value": 5.6, "unit": "fold"},
      {"measurement": "IC50", "setting": "[2]; MDCK2, dog kidney epithelial, read-out: IC50 for proliferation arrest", "value": 2.4, "unit": "µM"},
      {"measurement": "IC50", "setting": "[3]", "value": 6.5, "unit": "µM"},
      {"measurement": "IC50", "setting": "[4]", "value": 4, "unit": "µM"},
      {"measurement": "substrate status for MRP1/2", "setting": "MRP1/2", "value": "substrate for MRP1/2"},
      {"measurement": "anti-proliferative effect in presence of MRP1/2 inhibitors", "setting": "MRP1/2; 0.3 μM compound, 4H10 2 μM or MK-571 15 μM, 72 h", "value": "more potent anti-proliferative effect"},
      {"measurement": "accumulation in presence of MRP1/2 inhibitors 4H10 and MK-571", "setting": "MRP1/2; 50 μM compound, 4H10 5 μM or MK-571 25 μM", "value": "More (S)-Penicillamine-arsenoxide accumulated in BAE cells"},
      {"measurement": "time for half-maximal swelling of isolated mitochondria, times faster compared to GSAO", "setting": "[5]", "value": "approximately 4 times"},
      {"measurement": "effect of DIDS on anti-proliferative activity", "setting": "[6]; 300 μM DIDS, then 1.5 μM compound 24 h", "value": "reduces its anti-proliferative activity"},
      {"measurement": "effect of DIDS on uptake", "setting": "[6]; 500 μM DIDS 30 min, then 20 μM compound 2 h", "value": "inhibits (S)-Penicillamine arsenoxide uptake"},
      {"measurement": "tumour doubling time", "setting": "[7]; 0.25 mg/kg/day", "value": 8.3, "unit": "days"},
      {"measurement": "tumour doubling time", "setting": "[7]; 0.5 mg/kg/day", "value": 13.9, "unit": "days"},
      {"measurement": "tumour doubling time", "setting": "[7]; 1 mg/kg/day", "value": 16.2, "unit": "days"},
      {"measurement": "growth of the BxPC-3 tumours", "setting": "[7]; 0.25, 0.5 or 1 mg per kg per day", "value": "significantly inhibited"},
      {"measurement": "accumulation of connective tissue, mice affected", "setting": "[7]; highest dose animals", "value": 1, "unit": "mouse"},
      {"measurement": "skin necrosis at the delivery site, mice affected", "setting": "[7]; highest dose animals", "value": "3 of the 10"},
      {"measurement": "skin toxicity at pump delivery site", "setting": "[7]; highest dose animals (1 mg/kg/day)", "value": "some skin toxicity at the pump delivery site"},
      {"measurement": "findings at delivery site at the lower doses", "setting": "[7]; lower doses", "value": "some evidence of accumulation of connective tissue at the delivery site in the occasional mouse"},
      {"measurement": "animal weight versus vehicle", "setting": "[7]; not shown", "value": "no change in the weight"},
      {"measurement": "IC50", "setting": "[8]", "value": 13, "unit": "µM"},
      {"measurement": "IC50", "setting": "[9]; NB4, human acute promyelocytic leukaemia, read-out: IC50 for proliferation arrest", "value": 0.7, "unit": "µM"},
      {"measurement": "effects on APL cells compared to arsenic trioxide", "setting": "[9]; NB4 cells, 72 h", "value": "equivalent to arsenic trioxide; also recorded: as good an inhibitor of APL cell proliferation as arsenic trioxide"},
      {"measurement": "IC50", "setting": "[10]", "value": 6, "unit": "µM"},
      {"measurement": "IC50", "setting": "BAE cells", "value": 3.5, "unit": "µM"}
    ]}
  ]
}
